The text below walks through data of patent US20080306257A1, “Syntheses and Preparations of Narwedine and Related Novel Compounds” (priority 2005, published 2008).

What all share (assay type): physicochemical
A short description of data set [1]: solubility of (−)-galanthamine hydrobromide in water. As for the experimental part: (§1) It has been further observed that (−)-galanthamine hydrobromide can be further purified with high yield and without degradation of the material by crystallization in water in the presence of ammonium bromide. Lower yields are obtained using water in the absence of ammonium bromide due to the high solubility of (−)-galanthamine hydrobromide in water (about 50 mg/mL at room temperature and 300 mg/mL at reflux temperature).

A short description of data set [2]: epimerization of (−)-galanthamine under acidic conditions. Conditions: under acidic conditions (presence of hydrobromic acid). As for the experimental part: as §1
A short description of data set [3]: racemization in THF solution. Conditions: THF solution at approximately 0° C. As for the experimental part:
Advantage of this aspect of invention include, among others, the reduction reaction of (−)-narwedine-BF3 complex can be carried out at approximately 0° C.

Turning to `Br.COc1ccc2c3c1O[C@H]1C[C@@H](O)C=C[C@@]31CCN(C)C2` [(−)-galanthamine hydrobromide], the solubility in water in data set [1] (at reflux temperature) is reported as roughly 300 mg/mL; in data set [1] (at room temperature), “about 50 mg/mL”.
As to `COc1ccc2c3c1O[C@H]1C[C@@H](O)C=C[C@@]31CCN(C)C2` [(−)-galanthamine, (4aS,6R,8aS)-4a,5,9,10,11,12-hexahydro-3-methoxy-11-methyl-6H-benzofuro[3a,3,2-ef][2]benzazepin-6-ol], the “epimerization to (−)-epigalanthamine (stability)” value in data set [2] is reported as “rapidly epimerized”.
For “(−)-narwedine-BF3 complex [(−)-narwedine.BF3 complex]”, the “racemization (configurational stability)” value in data set [3] is “racemizes very slowly”.
